{"source": "patent US7927785B2", "about": "“Methods for in vitro expansion of hematopoietic stem cells” (The Board of Trustees of the University of Illinois, priority 2002, dated 2011)", "test_system": "CpG residue located at −256 position within the γ-globin promoter region", "experiment": "COBRA (Combined Bisulfite Restriction Analysis) of DNA methylation", "assay_type": "cell-based, human", "protocol": "DNA was prepared from cultured CD34^+ cells (0.5-2.0×10^6 total cells) using the QIAamp DNA blood Minikit (Qiagen, Valencia, Calif.) according to manufacturer's instructions. The purified DNA was digested with 10-20 units Hind III at 37° C. for one hour followed by two extractions with a 50/50/1 mixture of phenol/chloroform/isoamyl:alcohol saturated with 0.5 M Tris, pH 7.5. The digested DNA was precipitated overnight at −20° C. in the presence of 2.5 volumes ethanol and 0.3 M sodium acetate, pH 7.0. DNA was harvested by centrifugation, washed 2× in 70% ethanol and dissolved in H2O.\nDNA Denaturation was performed by incubation of 1-2 μg DNA in 10-20 μl 0.3 M NaOH at 37° C. for 20 minutes. Bisulfite modification was performed by the addition of 200 μl bisulfite solution (2.5 M sodium metabisulfite, 100 mM hydroquinone) prepared according to the method as described (Clark et al., Nucleic Acid Res. 22:2990-2997, 1994; Raizis et al., Anal. Biocem; 226:161-166, 1995; Xiong et al., Nucleic Acid Res., 2532-2534, 1997), followed by incubation for 4 hours at 50° C. […]\nFor COBRA (Combined Bisulfite Restriction Analysis), a 201 bp fragment of the γ-globin promoter region was amplified by two rounds of PCR using doubly nested primers. […] Digested products were analyzed by polyacrylamide gel electrophoresis (5% gel), visualized by staining with ethidium bromide, and quantified by densitometry."}
{"smiles": "Nc1ncn([C@H]2C[C@H](O)[C@@H](CO)O2)c(=O)n1", "note": "[5azaD, 5-aza2′deoxycitidine]", "values": [{"measurement": "% Hypomethylation", "setting": "5 days of culture, 5azaD 10−6M, TSA 5 ng/ml, approximated", "result": 68, "unit": "%"}, {"measurement": "% Methylation (COBRA, −256 position of γ-globin promoter)", "setting": "cultured 5 days with cytokines, densitometry", "result": 32, "unit": "%"}]}
